Measured values reported in paper PMC12027554, “Inhibition of ABCG2 by SCO-101 Enhances Chemotherapy Efficacy in Cancer” (International Journal of Molecular Sciences, 2025).

Tests used:
SNU-5 cells = experiment: Cell viability assay (CellTiter-Glo), SNU-5; format: cell-based; settings: Homo sapiens, 96 h
Description: Cells were seeded at a density of 0.2–1 × 10^4 cells/well into 96-well plates. One day after seeding, treatments were performed in triplicate for 72 h, or as otherwise indicated in the relevant panel/figure legend and kept at 37 °C/5% CO2. Growth medium alone (“untreated” cells) or DMSO was used as a control.
For SCH, SNU-5, and MKN45 cells, 50 μL of CellTiter-Glo® Reagent (Promega; Madison, WI, USA) was added to each well at the end of the treatments. The content was mixed for 5 min to facilitate cell lysis and plates incubated at room temperature for 10 min to stabilize luminescent signals, which were then recorded using an EnVision Multi Label Reader (PerkinElmer; Waltham, MA, USA).
Background values were subtracted prior to further analysis. The percentage of cell viability was expressed as relative values versus untreated cells as determined by the various assays. EC50/IC50 values were calculated using GraphPad Prism (v10.4.1) and the in-built non-linear regression [log (inhibitor) vs. response—variable slope (four parameters)] calculation. […] Synergy scores were calculated using the ZIP model, which takes the advantages of both the Loewe additivity and the Bliss independence models, aiming at a systematic assessment of various types of drug interaction patterns that may arise in a high-throughput drug combination screening.

HT29PAR cells = experiment: Cellular dye efflux assay (Hoechst 33342), parental cells; format: cell-based, human; settings: SCO-101 20 µM, Ko-143 1 µM
Description: Twenty-four hours before the experiments, cells were seeded into 96-well Nunclon^TM plates at a density of 6000 (HT29), 7000 (PANC-1) or 8000 (LoVo) cells/well. The following day, cells were treated in triplicate with the relevant drugs at the indicated concentrations for 1 h. Next, 5 μg/mL Hoechst 33342 was added to the wells, and plates incubated at 37 °C for 30 min^−1 h. Cells were washed with cold PBS, treatments re-added and plates re-incubated at 37 °C for 30 min to 1 h. Plates were analyzed using a Celigo® (Nexcelom Bioscience, Lawrence, MA, USA) imaging cytometer. Data are expressed as percentages of fluorescence intensity, calculated through the following formula: % fluorescence intensity=Mean fluorescence intensity of sample/Mean fluorescence intensity of parental control×100
Fluorescent images were captured with an Olympus® IX71/TH4-200 microscope equipped with an Olympus® DP72 camera (Shinjuku, Tokyo, Japan), and cells were seeded at a 1.5 × 10^5 cells/well density and treated as described above.

- IC50 (SNU-5 cells): > 50 µM
Structure (SMILES): O=C(Nc1cc(C(F)(F)F)cc(C(F)(F)F)c1)Nc1ccc(Br)cc1-c1nnn[nH]1 [SCO-101, N-[4-Bromo-2-(1H-1,2,3,4-tetrazol-5-yl)phenyl]-N′-[3,5-bis(trifluoromethyl)phenyl]urea]
- H33342 dye accumulation (HT29PAR cells): No change
